Measurements from PubChem BioAssay AID2060483 (Molecular Pharmacology Branch, DTP, NCI, 2025).

System: K24384-001-R-PDC complex spheroids, viability
Assay: Anticancer human tumor K24384-001-R-PDC patient-derived pancreatic adenocarcinoma cell line growth inhibition [GQUAD]
Settings: for IC50: curve of first compound; for viability, T/C: stronger effect = lower value
In short: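 Tumor cells were grown as complex spheroids with HUVEC endothelial cells and mesenchymal stem cells as stroma. G-quadruplex stabilizers were combined with targeted agents over half-log dilutions from near the clinical Cmax, or from 10 microM.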

[1] = second compound 0.0316 µM, first compound 0.0316 µM
[2] = second compound 0.0316 µM, first compound 0.316 µM
[3] = second compound 0.1 µM, first compound 0.0316 µM
[4] = second compound 0.1 µM, first compound 0.316 µM
[5] = second compound 0.316 µM, first compound 0.0316 µM
[6] = second compound 0.316 µM, first compound 0.316 µM
[7] = second compound 1 µM, first compound 0.0316 µM
[8] = second compound 1 µM, first compound 0.316 µM
[9] = second compound 3.16 µM, first compound 0.0316 µM
[10] = second compound 3.16 µM, first compound 0.316 µM
[11] = second compound 10 µM, first compound 0.0316 µM
[12] = second compound 10 µM, first compound 0.316 µM
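Note: spheroids exposed to compounds for seven days.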

## C#Cc1c(F)ccc2cc(O)cc(-c3ncc4c(N5CC6CCC(C5)N6)nc(OCC56CCCN5CC(F)C6)nc4c3F)c12 (centres undefined) + Cc1cnc(CNC(=O)c2c(=O)c3ccc(N4CCCN(C)CC4)nc3n3c2sc2ccccc23)cn1
Second compound 0.0316 µM
  IC50: 966 nM
Second compound 0.1 µM
  IC50: 494 nM
Second compound 0.316 µM
  IC50: 91.8 nM
Second compound 1 µM
  IC50: < 31.6 nM
Second compound 3.16 µM
  IC50: < 31.6 nM
Second compound 10 µM
  IC50: < 31.6 nM
[1]
  viability, T/C: 72%
Second compound 0.0316 µM, first compound 0.1 µM
  viability, T/C: 83.7%
[2]
  viability, T/C: 88.4%
Second compound 0.0316 µM, first compound 1 µM
  viability, T/C: 49%
Second compound 0.0316 µM, first compound 3.16 µM
  viability, T/C: 31.2%
Second compound 0.0316 µM, first compound 10 µM
  viability, T/C: 23.1%
[3]
  viability, T/C: 68.5%
Second compound 0.1 µM, first compound 0.1 µM
  viability, T/C: 65.3%
[4]
  viability, T/C: 54%
Second compound 0.1 µM, first compound 1 µM
  viability, T/C: 41.6%
Second compound 0.1 µM, first compound 3.16 µM
  viability, T/C: 31.9%
Second compound 0.1 µM, first compound 10 µM
  viability, T/C: 20.4%
[5]
  viability, T/C: 52.3%
Second compound 0.316 µM, first compound 0.1 µM
  viability, T/C: 48%
[6]
  viability, T/C: 51.6%
Second compound 0.316 µM, first compound 1 µM
  viability, T/C: 31.7%
Second compound 0.316 µM, first compound 3.16 µM
  viability, T/C: 32.7%
Second compound 0.316 µM, first compound 10 µM
  viability, T/C: 15.5%
[7]
  viability, T/C: 34.7%
Second compound 1 µM, first compound 0.1 µM
  viability, T/C: 42.6%
[8]
  viability, T/C: 41.5%
Second compound 1 µM, first compound 1 µM
  viability, T/C: 29%
Second compound 1 µM, first compound 3.16 µM
  viability, T/C: 27%
Second compound 1 µM, first compound 10 µM
  viability, T/C: 14.1%
[9]
  viability, T/C: 29%
Second compound 3.16 µM, first compound 0.1 µM
  viability, T/C: 36.7%
[10]
  viability, T/C: 33.9%
Second compound 3.16 µM, first compound 1 µM
  viability, T/C: 34.9%
Second compound 3.16 µM, first compound 3.16 µM
  viability, T/C: 18.4%
Second compound 3.16 µM, first compound 10 µM
  viability, T/C: 11.9%
[11]
  viability, T/C: 0.13%
Second compound 10 µM, first compound 0.1 µM
  viability, T/C: 0.18%
[12]
  viability, T/C: 0.23%
Second compound 10 µM, first compound 1 µM
  viability, T/C: 0.2%
Second compound 10 µM, first compound 3.16 µM
  viability, T/C: 0.23%
Second compound 10 µM, first compound 10 µM
  viability, T/C: 0.2%

## Cc1[nH]c2ccccc2c1CCNCc1ccc(/C=C/C(=O)NO)cc1 + Cc1cnc(CNC(=O)c2c(=O)c3ccc(N4CCCN(C)CC4)nc3n3c2sc2ccccc23)cn1
Second compound 0.0316 µM
  IC50: 118 nM
Second compound 0.1 µM
  IC50: 79.4 nM
Second compound 0.316 µM
  IC50: 39.5 nM
Second compound 1 µM
  IC50: < 0.999 nM
Second compound 3.16 µM
  IC50: < 0.999 nM
Second compound 10 µM
  IC50: < 0.999 nM
Second compound 0.0316 µM, first compound 0.000999 µM
  viability, T/C: 83.9%
Second compound 0.0316 µM, first compound 0.00316 µM
  viability, T/C: 75.8%
Second compound 0.0316 µM, first compound 0.00999 µM
  viability, T/C: 109%
[1]
  viability, T/C: 82.9%
Second compound 0.0316 µM, first compound 0.0999 µM
  viability, T/C: 57.4%
[2]
  viability, T/C: 6.49%
Second compound 0.1 µM, first compound 0.000999 µM
  viability, T/C: 65.4%
Second compound 0.1 µM, first compound 0.00316 µM
  viability, T/C: 81.2%
Second compound 0.1 µM, first compound 0.00999 µM
  viability, T/C: 74.7%
[3]
  viability, T/C: 57%
Second compound 0.1 µM, first compound 0.0999 µM
  viability, T/C: 48.9%
[4]
  viability, T/C: 5.15%
Second compound 0.316 µM, first compound 0.000999 µM
  viability, T/C: 45.5%
Second compound 0.316 µM, first compound 0.00316 µM
  viability, T/C: 54.4%
Second compound 0.316 µM, first compound 0.00999 µM
  viability, T/C: 63.1%
[5]
  viability, T/C: 44.8%
Second compound 0.316 µM, first compound 0.0999 µM
  viability, T/C: 45.6%
[6]
  viability, T/C: 1.86%
Second compound 1 µM, first compound 0.000999 µM
  viability, T/C: 41.3%
Second compound 1 µM, first compound 0.00316 µM
  viability, T/C: 41.8%
Second compound 1 µM, first compound 0.00999 µM
  viability, T/C: 37.3%
[7]
  viability, T/C: 37.3%
Second compound 1 µM, first compound 0.0999 µM
  viability, T/C: 28.2%
[8]
  viability, T/C: 0.15%
Second compound 3.16 µM, first compound 0.000999 µM
  viability, T/C: 33.8%
Second compound 3.16 µM, first compound 0.00316 µM
  viability, T/C: 33.3%
Second compound 3.16 µM, first compound 0.00999 µM
  viability, T/C: 35.4%
[9]
  viability, T/C: 34.6%
Second compound 3.16 µM, first compound 0.0999 µM
  viability, T/C: 13.5%
[10]
  viability, T/C: 0.12%
Second compound 10 µM, first compound 0.000999 µM
  viability, T/C: 0.27%
Second compound 10 µM, first compound 0.00316 µM
  viability, T/C: 0.26%
Second compound 10 µM, first compound 0.00999 µM
  viability, T/C: 0.28%
[11]
  viability, T/C: 0.32%
Second compound 10 µM, first compound 0.0999 µM
  viability, T/C: 0.26%
[12]
  viability, T/C: 0.21%
